Results reported in the supplement of paper PMC10307832.

What was measured:
Experiment in all cases: relative viability (nuclei count vs DMSO), 5 days (fraction); higher = more cells survive
[1] = compound: Cc1ccc2nc(NCCN)c3ncc(C)n3c2c1 + CS(=O)(=O)CCNCc1ccc(-c2ccc3ncnc(Nc4ccc(OCc5cccc(F)c5)c(Cl)c4)c3c2)o1 [Lapatinib] (partner 2 µM)
Method in brief: (§1)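 For relative viability, nuclei counts in treated wells were divided by those in vehicle wells. Lung cancer cell lines had been pin-tool dosed in 1536-well plates the day after seeding and cultured for 5 days, then fixed and stained in one step (final 0.05% Triton X-100, 1% formaldehyde, 1 ug/ml Hoechst) and imaged at 4×. Doses were one drug alone or a fixed anchor-drug dose plus five library-drug doses (not always all listed) in √10 steps, and values are duplicate-plate medians.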

Salubrinal + Decitabine = compound: O=C(/C=C/c1ccccc1)NC(NC(=S)Nc1cccc2cccnc12)C(Cl)(Cl)Cl [Salubrinal] + Nc1ncn([C@H]2C[C@H](O)[C@@H](CO)O2)c(=O)n1 [Decitabine] (partner 2 µM)
Method in brief: as §1

[2] = compound: Cc1ccc2nc(NCCN)c3ncc(C)n3c2c1 + O=C(c1cc(Cc2n[nH]c(=O)c3ccccc23)ccc1F)N1CCN(C(=O)C2CC2)CC1 [Olaparib] (partner 8 µM)
Method in brief: as §1

Salubrinal + Tozasertib = compound: O=C(/C=C/c1ccccc1)NC(NC(=S)Nc1cccc2cccnc12)C(Cl)(Cl)Cl [Salubrinal] + Cc1cc(Nc2cc(N3CCN(C)CC3)nc(Sc3ccc(NC(=O)C4CC4)cc3)n2)n[nH]1 [Tozasertib] (partner 0.1 µM)
Method in brief: as §1

| Cell Line | relative viability ([1]; first compound 0.04 µM) | relative viability ([1]; first compound 0.1265 µM) | relative viability ([1]; first compound 0.4 µM) | relative viability ([1]; first compound 1.265 µM) | relative viability ([1]; first compound 4 µM) | relative viability (Salubrinal + Decitabine; first compound 0.08 µM) | relative viability (Salubrinal + Decitabine; first compound 0.253 µM) | relative viability (Salubrinal + Decitabine; first compound 0.8 µM) | relative viability (Salubrinal + Decitabine; first compound 2.53 µM) | relative viability (Salubrinal + Decitabine; first compound 8 µM) | relative viability ([2]; first compound 0.04 µM) | relative viability ([2]; first compound 0.1265 µM) | relative viability ([2]; first compound 0.4 µM) | relative viability ([2]; first compound 1.265 µM) | relative viability ([2]; first compound 4 µM) | relative viability (Salubrinal + Tozasertib; first compound 0.253 µM) | relative viability (Salubrinal + Tozasertib; first compound 0.8 µM) | relative viability (Salubrinal + Tozasertib; first compound 2.53 µM) | relative viability (Salubrinal + Tozasertib; first compound 8 µM) | relative viability (Salubrinal + Tozasertib; first compound 0.08 µM) |
| --- | --- | --- | --- | --- | --- | --- | --- | --- | --- | --- | --- | --- | --- | --- | --- | --- | --- | --- | --- | --- |
| BEN | 0.894 | 0.6 | 0.827 | 0.77 | 0.709 | 0.711 | 0.726 | 0.865 | 0.741 | 0.766 | 1.17 | 1.18 | 1.07 | 1.04 | 1.24 | 0.689 | 0.718 | 0.479 | 0.471 |  |
| COR-L23 | 1.27 | 0.874 | 0.924 | 0.837 | 0.853 | 0.408 | 0.395 | 0.451 | 0.473 | 0.386 | 0.348 | 0.351 | 0.397 | 0.321 | 0.328 | 0.185 | 0.194 | 0.168 | 0.145 | 0.191 |
| COR-L 105 | 0.451 | 0.351 | 0.352 | 0.399 | 0.339 | 0.807 | 0.693 | 0.655 | 0.712 | 0.534 | 0.656 | 0.883 | 0.665 | 0.533 | 0.642 | 0.37 | 0.312 | 0.335 | 0.328 | 0.665 |
| EKVX | 0.232 | 0.197 | 0.216 | 0.283 | 0.213 | 0.367 | 0.366 | 0.482 | 0.286 | 0.331 | 0.941 | 0.82 | 0.775 | 0.706 | 0.737 | 0.387 | 0.536 | 0.382 | 0.321 | 0.437 |
| EMC-BAC-2 | 0.915 | 0.875 | 0.847 | 0.918 | 0.851 | 0.992 | 0.879 | 1.01 | 0.991 | 1.05 | 0.519 | 0.502 | 0.507 | 0.456 | 0.488 | 0.289 | 0.313 | 0.255 | 0.261 | 0.239 |
| EPLC-272H | 1.04 | 0.981 | 0.777 | 0.829 | 0.977 | 0.403 | 0.373 | 0.369 | 0.405 | 0.362 | 0.869 | 0.814 | 0.98 | 0.686 | 0.778 | 0.249 | 0.258 | 0.243 | 0.242 | 0.426 |
| H3255 | 0.275 | 0.268 | 0.398 | 0.252 | 0.283 | 0.703 | 0.649 | 0.774 | 0.591 | 0.558 | 0.561 | 0.482 | 0.516 | 0.59 | 0.47 | 0.65 | 0.802 | 0.551 | 0.477 | 0.502 |
| HARA | 0.748 | 0.863 | 0.553 | 0.691 | 0.821 | 0.402 | 0.498 | 0.601 | 0.517 | 0.605 | 0.73 | 0.782 | 0.791 | 0.759 | 0.365 | 0.108 | 0.111 | 0.0979 | 0.106 | 0.122 |
| HCC-15 | 0.888 | 0.811 | 0.776 | 0.75 | 0.737 | 0.723 | 0.555 | 0.773 | 0.762 | 0.61 | 0.648 | 0.752 | 0.7 | 0.75 | 0.622 | 0.332 | 0.41 | 0.438 | 0.257 | 0.481 |
| HCC-44 | 0.961 | 0.993 | 1.01 | 0.99 | 1.01 | 0.955 | 0.969 | 0.935 | 0.934 | 0.919 | 0.999 | 0.96 | 0.955 | 1 | 0.977 | 0.916 | 1.08 | 0.74 | 0.708 | 1.24 |
| HCC-78 | 1.03 | 0.738 | 0.775 | 0.861 | 0.697 | 0.735 | 0.661 | 0.816 | 0.606 | 0.624 | 0.746 | 0.861 | 0.655 | 0.587 | 0.766 | 0.343 | 0.345 | 0.351 | 0.314 | 0.372 |
| HCC-366 | 1.14 | 0.91 | 1.11 | 1.07 | 0.998 | 0.371 |  | 0.374 | 0.392 | 0.301 | 0.388 | 0.394 | 0.36 | 0.352 | 0.366 | 0.0941 | 0.118 | 0.0829 | 0.0635 | 0.106 |
| HCC-827 | 0.21 | 0.207 | 0.191 | 0.195 | 0.209 | 0.303 | 0.335 | 0.361 | 0.345 | 0.341 | 0.689 | 0.73 | 0.661 | 0.639 | 0.607 | 0.423 | 0.406 | 0.417 | 0.432 | 0.429 |
| HOP-62 | 1.13 | 0.845 | 0.688 | 0.81 | 1.02 | 0.192 | 0.206 | 0.196 | 0.187 | 0.224 | 0.286 | 0.457 | 0.436 | 0.417 | 0.42 | 0.378 | 0.409 | 0.347 | 0.334 | 0.334 |
| LC-2-ad | 0.939 | 0.922 | 0.915 | 0.945 | 0.89 | 0.751 | 0.63 | 0.792 | 0.771 | 0.813 | 0.729 | 0.743 | 0.71 | 0.768 | 0.71 | 0.449 | 0.478 | 0.408 | 0.354 | 0.45 |
| LCLC-97TM1 | 1.06 | 1.42 | 0.78 | 1.33 | 1 | 0.248 | 0.223 | 0.234 | 0.21 | 0.257 | 0.491 | 0.428 | 0.462 | 0.417 | 0.338 | 0.157 | 0.266 | 0.188 | 0.165 | 0.238 |
